Where a name gives a salt, the structure may show the parent alone. Read-outs that look alike come from different tables or passages of the source.

Assay [1] deals with human TAS1R2-TAS1R3 heteromer. The following applies: cited from earlier work.
Assay [2] concerns sweet taste. Further details: method as in PMID 11917125, PMID 7812727, PMID 12379598, PMID 10480680. The following applies: rats; cited from earlier work.
Assay [3] relates to rTas1r2 and rTas1r3 mutants m1 – m7 other than m6. Briefly: Calcium mobilization (FLIPR), other rTas1r3 mutants (m1-m5, m7). Format: cell-based, rat. The following applies: stimulation with 1 mM stevioside; 1.0 mM lactisole. From the text: Receptor mutants were generated by site directed mutagenesis according to the QuikChange protocol (Stratagene). The forward and reverse complement primers contained the desired mutations and annealed to the same sequence on opposite strands of the plasmids. The following rTas1r3 receptor variants were generated: m1: S576L; m2: R632Q, S635P, S637Q; m3: M644L A645S; m4: A702T; m5: Q717H, V718M, V723A, E725V; m6: L735F, V738A, I740A. m6/1: V738A, I740A, m6/2: L735F, I740A, m6/3: L735F, V738A. m7: A793V, Y794L, Q795R. Subsequently a rTas1r3-V738A variant was generated. All constructs were checked by sequencing.
The cDNAs were transiently transfected into HEK293T cells stably expressing the chimeric G-protein subunit Gα16gust44 [20] using Lipofectamine 2000 (Invitrogen) according to the manufacturer's protocol. 3–4 hours after transfection, DMEM was replaced by low-glucose DMEM supplemented with GlutaMAX and 10% dialyzed FBS (Invitrogen). 22–44 hours later, cells were loaded for 1 hour with the calcium sensitive dye Fluo4-AM (2 μg/ml in DMEM, Molecular Probes). […] Calcium mobilization was monitored by an automated fluorometric imaging plate reader (FLIPR, Molecular Devices). […] The obtained calcium signals were corrected for the response of mock transfected cells and normalized to the fluorescence of cells prior to the stimulus using ΔF/F=(F-F0)/F0. […]
In general terms: A change in cytosolic calcium serves as a functional read-out for many receptors and channels.

Assay [4] concerns sweet taste. Further details: method as in PMID 11917125, PMID 7812727, PMID 12379598, PMID 10480680. The following applies: humans; cited from earlier work.
Assay [5] relates to hTAS1R2 and tas1r3-hN-rTM. Briefly: Calcium mobilization (FLIPR), chimera with human N-terminus and rat transmembrane region. Format: cell-based. The text has this:
The receptor chimeras of Tas1r3 were constructed using recombinant PCR. In the first reactions the N-terminal and the C-terminal part containing the seven transmembrane domains of hTAS1R3 and rTas1r3 were amplified from plasmid DNA using Ultra Pfu Polymerase (Stratagene). For the hTAS1R3 and rTas1r3 N-termini the forward vector-anchored primer (CMV: […]) and a reverse gene specific primer ([…]) were used. The hTAS1R3 and rTas1r3 C-terminal part were amplified with forward gene specific primer ([…]) and a reverse vector-anchored primer ([…]). PCR conditions were: 5 min, 94°C, 24 cycles 1 min 94°C, 0.5 min 64°C, 2 min 72°C; 5 min 72°C. The amplicons were purified using the Highpure PCR Product Purification Kit (Roche) and used as template for the second PCR. To create the chimeric receptor tas1r3-hN-rTM, equimolar amounts (~50 ng) of the hTAS1R3 N-terminus and rTas1r3 transmembrane domains were combined without additional oligonucleotides. PCR conditions were: 5 min 94°C; 15 cycles of 2 min 64°C, 2 min 72°C and 0.5 min 94°C; followed by 5 min 64°C and 10 min 72°C. […] These chimeras were cloned into pcDNA5/FRT.
The cDNAs were transiently transfected into HEK293T cells stably expressing the chimeric G-protein subunit Gα16gust44 [20] using Lipofectamine 2000 (Invitrogen) according to the manufacturer's protocol. 3–4 hours after transfection, DMEM was replaced by low-glucose DMEM supplemented with GlutaMAX and 10% dialyzed FBS (Invitrogen). 22–44 hours later, cells were loaded for 1 hour with the calcium sensitive dye Fluo4-AM (2 μg/ml in DMEM, Molecular Probes). Cells were washed 3x in solution C1 (130 mM NaCl, 5 mM KCl, 10 mM Hepes, 2 mM CaCl2, and 5 mM Glucose, pH 7,4). Calcium mobilization was monitored by an automated fluorometric imaging plate reader (FLIPR, Molecular Devices). Ligands (Sigma-Aldrich, Merck) were dissolved in C1 solution. All data were collected from at least two independent experiments carried out in triplicate. The obtained calcium signals were corrected for the response of mock transfected cells and normalized to the fluorescence of cells prior to the stimulus using ΔF/F=(F-F0)/F0. […]
All sweeteners were used at concentrations which were close to the maximal obtainable signal. (c) Alignment of amino acid sequences of the human, rat, and mouse Tas1r3 transmembrane regions. Color code: white, identical; grey, conservative; dark-grey, similar; black, non-similar. TM, predicted transmembrane domain, indicated by a black bar. Dots indicate the location of the primer used to generate the chimeric rat-human Tas1r3 receptors. Asterisks denote amino acid positions that are identical in rat and mouse but variable between humans and rodents and are located in the extracellular loops or the upper part of the transmembran regions. Boxes indicate the several rTas1r3 mutants m1 – m7, including the amino acid substitutions. m6/1 – m6/3 signified the reconverted amino acid of mutant m6.

The next assay has as its target T1, hTAS1R2-hTAS1R3 (Homo sapiens, UniProt Q7RTX0+Q8TE23).
T1 sequence (Q8TE23 20-839): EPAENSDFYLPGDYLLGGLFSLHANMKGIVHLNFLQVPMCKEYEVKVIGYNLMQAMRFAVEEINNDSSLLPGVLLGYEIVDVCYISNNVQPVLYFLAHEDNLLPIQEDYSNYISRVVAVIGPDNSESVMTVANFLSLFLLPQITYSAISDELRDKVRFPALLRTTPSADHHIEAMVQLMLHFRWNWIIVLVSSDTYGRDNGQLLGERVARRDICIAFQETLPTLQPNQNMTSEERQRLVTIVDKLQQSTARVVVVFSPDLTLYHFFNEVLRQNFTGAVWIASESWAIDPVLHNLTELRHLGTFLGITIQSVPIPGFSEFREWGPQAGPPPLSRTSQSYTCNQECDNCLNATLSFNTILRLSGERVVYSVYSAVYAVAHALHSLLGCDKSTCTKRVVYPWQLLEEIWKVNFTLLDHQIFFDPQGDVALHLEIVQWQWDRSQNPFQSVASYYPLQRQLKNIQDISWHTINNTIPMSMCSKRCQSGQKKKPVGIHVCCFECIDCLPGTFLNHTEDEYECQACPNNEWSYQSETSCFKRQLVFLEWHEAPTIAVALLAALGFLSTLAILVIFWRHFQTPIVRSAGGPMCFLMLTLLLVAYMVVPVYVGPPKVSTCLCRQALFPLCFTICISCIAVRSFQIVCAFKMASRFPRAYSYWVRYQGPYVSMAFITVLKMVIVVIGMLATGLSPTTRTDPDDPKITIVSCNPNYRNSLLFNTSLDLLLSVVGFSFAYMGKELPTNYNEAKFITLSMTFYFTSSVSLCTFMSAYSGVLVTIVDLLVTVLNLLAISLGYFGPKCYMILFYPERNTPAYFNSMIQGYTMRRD
T1 sequence (Q7RTX0 21-852): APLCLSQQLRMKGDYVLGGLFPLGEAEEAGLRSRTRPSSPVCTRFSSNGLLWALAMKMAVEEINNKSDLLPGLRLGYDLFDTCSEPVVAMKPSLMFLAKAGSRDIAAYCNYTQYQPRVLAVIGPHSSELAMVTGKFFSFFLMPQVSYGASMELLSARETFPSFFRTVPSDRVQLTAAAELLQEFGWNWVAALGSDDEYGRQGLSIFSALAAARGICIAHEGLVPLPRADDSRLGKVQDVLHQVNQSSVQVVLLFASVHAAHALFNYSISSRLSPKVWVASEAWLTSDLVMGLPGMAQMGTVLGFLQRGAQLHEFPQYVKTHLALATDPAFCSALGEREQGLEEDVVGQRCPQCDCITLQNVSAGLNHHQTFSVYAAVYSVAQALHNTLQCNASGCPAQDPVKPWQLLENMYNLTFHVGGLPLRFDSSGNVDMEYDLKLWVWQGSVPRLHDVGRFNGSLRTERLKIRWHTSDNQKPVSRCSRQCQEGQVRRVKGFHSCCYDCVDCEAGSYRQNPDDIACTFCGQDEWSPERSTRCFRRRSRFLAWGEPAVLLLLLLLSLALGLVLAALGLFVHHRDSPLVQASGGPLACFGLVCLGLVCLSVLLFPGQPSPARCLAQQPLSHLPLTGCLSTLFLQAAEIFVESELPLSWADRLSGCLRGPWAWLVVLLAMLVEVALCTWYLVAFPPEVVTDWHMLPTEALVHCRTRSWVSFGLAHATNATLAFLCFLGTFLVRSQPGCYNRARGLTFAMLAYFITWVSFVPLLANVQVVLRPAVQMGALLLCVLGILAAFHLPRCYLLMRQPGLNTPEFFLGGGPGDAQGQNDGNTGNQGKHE
The assay is described as follows: Calcium mobilization (FLIPR) in transfected HEK293T-Gα16gust44 cells, human sweet receptor. The following applies: asp 15 mM; cyc 30 mM; neo 0.1 mM; sac 10 mM; suc 100 mM; stev 1 mM.

Regarding monellin, the activation of heteromer entry in assay [1] is “only activate the human”.

In the case of `COc1ccc(OC(C)C(=O)O)cc1` (stereo not drawn) [lactisole, 2-(4-methoxphenoxy) propanoic acid sodium salt], the “suppression of the sweet taste of various compounds” value is reported as “not in rats” with sweet taste [2] and “suppresses the sweet taste” in the assay with sweet taste [4]. In assay [3], the “lactisole sensitivity conferred to the heteromer” value is “did not”. Besides, the “lactisole sensitivity of agonist responses” value in assay [5] (1.0 mM lactisole, all four agonists) is recorded as “lactisole insensitive”. Take “brazzein: sweet protein (QDKCKKVYENYPVSKCQLANQCNYDCKLDKHARSGECFYDEKRNLQCICDYCEY; UniProt P56552 1-54, looked up)”: the activation of heteromer result in assay [1] is reported as “only activate the human”. As for `O=C1NS(=O)(=O)c2ccccc21` [saccharin], the “activation of receptor (calcium response)” value on hTAS1R2-hTAS1R3 is on record as “elevated intracellular calcium levels”; in assay [5] (asp 15 mM, cyc 30 mM, neo 0.1 mM, sac 10 mM, suc 100 mM, stev 1 mM), “responded”.

Regarding thaumatin, the activation of heteromer entry in assay [1] is given as “only activate the human”.

Values taken from paper PMC1084349 (BMC Neuroscience, 2005).
